Measured values: PubChem BioAssay (NCI)
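Grown in 96-well plates, cells were treated for 48 hours with each compound at five concentrations. Insufficient inhibition: endpoint recorded as highest concentration tested. TGI denotes the concentration required for complete inhibition of growth.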

Assays:
Test in all cases: growth of human tumour cells (NCI), 48 h
786-0 renal = system: 786-0 renal
A549 NSCLC = system: A549 NSCLC
ACHN renal = system: ACHN renal
CCRF-CEM leukemia = system: CCRF-CEM leukemia
COLO 205 colon = system: COLO 205 colon
DLD-1 colon = system: DLD-1 colon
DMS 114 small cell lung = system: DMS 114 small cell lung
DMS 273 small cell lung = system: DMS 273 small cell lung
EKVX NSCLC = system: EKVX NSCLC
HCC-2998 colon = system: HCC-2998 colon
HCT-116 colon = system: HCT-116 colon
HCT-15 colon = system: HCT-15 colon
HL-60(TB) leukemia = system: HL-60(TB) leukemia
HOP-62 NSCLC = system: HOP-62 NSCLC
HOP-92 NSCLC = system: HOP-92 NSCLC
HT29 colon = system: HT29 colon
IGROV1 ovarian = system: IGROV1 ovarian
K-562 leukemia = system: K-562 leukemia
KM12 colon = system: KM12 colon
KM20L2 colon = system: KM20L2 colon
LOX IMVI melanoma = system: LOX IMVI melanoma
LXFL 529 NSCLC = system: LXFL 529 NSCLC
M14 melanoma = system: M14 melanoma
M19-MEL melanoma = system: M19-MEL melanoma
MALME-3M melanoma = system: MALME-3M melanoma
MOLT-4 leukemia = system: MOLT-4 leukemia
NCI-H226 lung = system: NCI-H226 lung
NCI-H23 lung = system: NCI-H23 lung
NCI-H460 lung = system: NCI-H460 lung
NCI-H522 lung = system: NCI-H522 lung
OVCAR-3 ovarian = system: OVCAR-3 ovarian
OVCAR-4 ovarian = system: OVCAR-4 ovarian
OVCAR-5 ovarian = system: OVCAR-5 ovarian
OVCAR-8 ovarian = system: OVCAR-8 ovarian
RPMI-8226 leukemia = system: RPMI-8226 leukemia
RXF 393 renal = system: RXF 393 renal
SF-268 CNS = system: SF-268 CNS
SF-295 CNS = system: SF-295 CNS
SF-539 CNS = system: SF-539 CNS
SK-MEL-2 melanoma = system: SK-MEL-2 melanoma
SK-MEL-28 melanoma = system: SK-MEL-28 melanoma
SK-MEL-5 melanoma = system: SK-MEL-5 melanoma
SK-OV-3 ovarian = system: SK-OV-3 ovarian
SN12C renal = system: SN12C renal
SNB-19 CNS = system: SNB-19 CNS
SNB-75 CNS = system: SNB-75 CNS
SNB-78 CNS = system: SNB-78 CNS
SR leukemia = system: SR leukemia
SW-620 colon = system: SW-620 colon
TK-10 renal = system: TK-10 renal
U251 CNS = system: U251 CNS
UACC-257 melanoma = system: UACC-257 melanoma
UACC-62 melanoma = system: UACC-62 melanoma
UO-31 renal = system: UO-31 renal
XF 498 CNS = system: XF 498 CNS
A498 renal = system: A498 renal
CAKI-1 renal = system: CAKI-1 renal
RXF-631 renal = system: RXF-631 renal
HOP-18 NSCLC = system: HOP-18 NSCLC

## O=c1[nH]c2ccc([N+](=O)[O-])cc2nc1/C(=N/Nc1ccccc1)C(O)c1ccco1 (stereo unspecified)
786-0 renal
  TGI: > 100 µM
A549 NSCLC
  TGI: > 100 µM
ACHN renal
  TGI: > 100 µM
CCRF-CEM leukemia
  TGI: > 100 µM
COLO 205 colon
  TGI: > 100 µM
DLD-1 colon
  TGI: > 100 µM
DMS 114 small cell lung
  TGI: > 100 µM
DMS 273 small cell lung
  TGI: > 100 µM
EKVX NSCLC
  TGI: > 100 µM
HCC-2998 colon
  TGI: > 100 µM
HCT-116 colon
  TGI: > 100 µM
HCT-15 colon
  TGI: 63.5 µM
HL-60(TB) leukemia
  TGI: > 100 µM
HOP-62 NSCLC
  TGI: > 100 µM
HOP-92 NSCLC
  TGI: > 100 µM
HT29 colon
  TGI: > 100 µM
IGROV1 ovarian
  TGI: > 100 µM
K-562 leukemia
  TGI: > 100 µM
KM12 colon
  TGI: > 100 µM
KM20L2 colon
  TGI: > 100 µM
LOX IMVI melanoma
  TGI: > 100 µM
LXFL 529 NSCLC
  TGI: > 100 µM
M14 melanoma
  TGI: > 100 µM
M19-MEL melanoma
  TGI: > 100 µM
MALME-3M melanoma
  TGI: > 100 µM
MOLT-4 leukemia
  TGI: > 100 µM
NCI-H226 lung
  TGI: > 100 µM
NCI-H23 lung
  TGI: > 100 µM
NCI-H460 lung
  TGI: > 100 µM
NCI-H522 lung
  TGI: 96.5 µM
OVCAR-3 ovarian
  TGI: > 100 µM
OVCAR-4 ovarian
  TGI: > 100 µM
OVCAR-5 ovarian
  TGI: > 100 µM
OVCAR-8 ovarian
  TGI: > 100 µM
RPMI-8226 leukemia
  TGI: > 100 µM
RXF 393 renal
  TGI: > 100 µM
SF-268 CNS
  TGI: > 100 µM
SF-295 CNS
  TGI: > 100 µM
SF-539 CNS
  TGI: > 100 µM
SK-MEL-2 melanoma
  TGI: > 100 µM
SK-MEL-28 melanoma
  TGI: > 100 µM
SK-MEL-5 melanoma
  TGI: 90.6 µM
SK-OV-3 ovarian
  TGI: > 100 µM
SN12C renal
  TGI: > 100 µM
SNB-19 CNS
  TGI: > 100 µM
SNB-75 CNS
  TGI: > 100 µM
SNB-78 CNS
  TGI: > 100 µM
SR leukemia
  TGI: > 100 µM
SW-620 colon
  TGI: > 100 µM
TK-10 renal
  TGI: > 100 µM
U251 CNS
  TGI: > 100 µM
UACC-257 melanoma
  TGI: > 100 µM
UACC-62 melanoma
  TGI: > 100 µM
UO-31 renal
  TGI: > 100 µM
XF 498 CNS
  TGI: > 100 µM

## COc1cc([C@@H]2Oc3cc4oc(-c5ccccc5)cc(=O)c4c(O)c3O[C@H]2OC)ccc1O
786-0 renal
  TGI: 20.8 µM
A498 renal
  TGI: 32.3 µM
ACHN renal
  TGI: 23.1 µM
CAKI-1 renal
  TGI: 34.4 µM
CCRF-CEM leukemia
  TGI: 27.8 µM
COLO 205 colon
  TGI: 50.2 µM
DLD-1 colon
  TGI: 21.2 µM
DMS 273 small cell lung
  TGI: 14.4 µM
HCC-2998 colon
  TGI: 26.5 µM
HCT-116 colon
  TGI: 19.6 µM
HL-60(TB) leukemia
  TGI: 8.08 µM
HOP-62 NSCLC
  TGI: 26.9 µM
HOP-92 NSCLC
  TGI: 39.5 µM
IGROV1 ovarian
  TGI: 53.1 µM
K-562 leukemia
  TGI: 25.9 µM
LXFL 529 NSCLC
  TGI: 25.2 µM
M14 melanoma
  TGI: 24.7 µM
M19-MEL melanoma
  TGI: 24 µM
MALME-3M melanoma
  TGI: 30.6 µM
MOLT-4 leukemia
  TGI: 21.3 µM
NCI-H226 lung
  TGI: 38.4 µM
NCI-H23 lung
  TGI: 32.4 µM
NCI-H460 lung
  TGI: 15.2 µM
OVCAR-4 ovarian
  TGI: 29.1 µM
RPMI-8226 leukemia
  TGI: 25.9 µM
RXF-631 renal
  TGI: 32.6 µM
SF-268 CNS
  TGI: 19.7 µM
SF-539 CNS
  TGI: 30.6 µM
SK-MEL-2 melanoma
  TGI: 31.2 µM
SK-MEL-28 melanoma
  TGI: 16.8 µM
SK-OV-3 ovarian
  TGI: 34.1 µM
SN12C renal
  TGI: 25.5 µM
SNB-75 CNS
  TGI: 25.1 µM
SNB-78 CNS
  TGI: 38.2 µM
SR leukemia
  TGI: 18.5 µM
UACC-62 melanoma
  TGI: 37.7 µM

## C/C(CC(=O)Nc1cccc([N+](=O)[O-])c1)=N\NC(=O)C[n+]1ccccc1
786-0 renal
  TGI: > 100 µM
A549 NSCLC
  TGI: > 100 µM
CCRF-CEM leukemia
  TGI: > 100 µM
COLO 205 colon
  TGI: > 100 µM
DLD-1 colon
  TGI: > 100 µM
DMS 114 small cell lung
  TGI: > 100 µM
EKVX NSCLC
  TGI: > 100 µM
HCC-2998 colon
  TGI: > 100 µM
HCT-116 colon
  TGI: > 100 µM
HL-60(TB) leukemia
  TGI: > 100 µM
HOP-62 NSCLC
  TGI: > 100 µM
HOP-92 NSCLC
  TGI: > 100 µM
HT29 colon
  TGI: > 100 µM
IGROV1 ovarian
  TGI: > 100 µM
KM12 colon
  TGI: > 100 µM
KM20L2 colon
  TGI: > 100 µM
LOX IMVI melanoma
  TGI: > 100 µM
LXFL 529 NSCLC
  TGI: > 100 µM
M14 melanoma
  TGI: > 100 µM
M19-MEL melanoma
  TGI: > 100 µM
MALME-3M melanoma
  TGI: > 100 µM
MOLT-4 leukemia
  TGI: > 100 µM
NCI-H226 lung
  TGI: > 100 µM
NCI-H23 lung
  TGI: > 100 µM
NCI-H460 lung
  TGI: > 100 µM
NCI-H522 lung
  TGI: > 100 µM
OVCAR-3 ovarian
  TGI: > 100 µM
OVCAR-5 ovarian
  TGI: > 100 µM
OVCAR-8 ovarian
  TGI: > 100 µM
RPMI-8226 leukemia
  TGI: > 100 µM
RXF 393 renal
  TGI: > 100 µM
SF-268 CNS
  TGI: > 100 µM
SF-295 CNS
  TGI: > 100 µM
SF-539 CNS
  TGI: > 100 µM
SK-MEL-2 melanoma
  TGI: > 100 µM
SK-MEL-28 melanoma
  TGI: > 100 µM
SK-MEL-5 melanoma
  TGI: > 100 µM
SK-OV-3 ovarian
  TGI: > 100 µM
SNB-75 CNS
  TGI: > 100 µM
SNB-78 CNS
  TGI: > 100 µM
SW-620 colon
  TGI: > 100 µM
TK-10 renal
  TGI: > 100 µM
U251 CNS
  TGI: > 100 µM
UACC-257 melanoma
  TGI: > 100 µM
UACC-62 melanoma
  TGI: > 100 µM
UO-31 renal
  TGI: > 100 µM
XF 498 CNS
  TGI: > 100 µM

## CC(C)=CCC/C(C)=C/C=C/C(C)=C/C1C[C@@]2(C(O)O1)[C@H](CCCO)/C(=C(/C)C=O)CC[C@]2(C)O (stereo partly specified)
A549 NSCLC
  TGI: 25 µM
ACHN renal
  TGI: 25.2 µM
CAKI-1 renal
  TGI: 25.6 µM
COLO 205 colon
  TGI: 13.4 µM
DLD-1 colon
  TGI: 44.4 µM
DMS 114 small cell lung
  TGI: 27.4 µM
DMS 273 small cell lung
  TGI: 7.82 µM
EKVX NSCLC
  TGI: 25.1 µM
HCC-2998 colon
  TGI: 29.4 µM
HCT-116 colon
  TGI: 37.9 µM
HCT-15 colon
  TGI: 31 µM
HL-60(TB) leukemia
  TGI: 29 µM
HOP-18 NSCLC
  TGI: 33.4 µM
HT29 colon
  TGI: 33.3 µM
IGROV1 ovarian
  TGI: 40.6 µM
K-562 leukemia
  TGI: 28.4 µM
KM20L2 colon
  TGI: 29.1 µM
LOX IMVI melanoma
  TGI: 28 µM
M14 melanoma
  TGI: 32.2 µM
M19-MEL melanoma
  TGI: 32.4 µM
MALME-3M melanoma
  TGI: 22.6 µM
MOLT-4 leukemia
  TGI: 30.8 µM
NCI-H226 lung
  TGI: 40.9 µM
NCI-H460 lung
  TGI: 25.5 µM
NCI-H522 lung
  TGI: 36.7 µM
OVCAR-5 ovarian
  TGI: 55.6 µM
OVCAR-8 ovarian
  TGI: 51 µM
RXF 393 renal
  TGI: 35.2 µM
SF-268 CNS
  TGI: 33.3 µM
SF-295 CNS
  TGI: 27.7 µM
SF-539 CNS
  TGI: 25 µM
SK-MEL-2 melanoma
  TGI: 34.6 µM
SK-MEL-28 melanoma
  TGI: 32.3 µM
SN12C renal
  TGI: 30.8 µM
SNB-19 CNS
  TGI: 35.4 µM
SNB-75 CNS
  TGI: 69.9 µM
SNB-78 CNS
  TGI: 42 µM
SR leukemia
  TGI: 37.2 µM
SW-620 colon
  TGI: 27.8 µM
TK-10 renal
  TGI: 62.8 µM
UACC-257 melanoma
  TGI: 56.5 µM
UO-31 renal
  TGI: 33.9 µM
XF 498 CNS
  TGI: 32.7 µM
